Laboratory results published in PubChem BioAssay (NCI).
Several values for one entry are separate records, joined by “and”; a condition that tells them apart may be missing. Equal entries are not always repeated.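 These data come from cells grown in 96-well plates and exposed to compound for 48 hours at five concentrations. GI50 = concentration required for 50% inhibition of growth. At the TGI there is no net growth.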

Legend:
Experiment in all cases: DTP human tumour cell line panel, 48 h
A498 renal = tested on: A498 renal
ACHN renal = tested on: ACHN renal
SNB-19 CNS = tested on: SNB-19 CNS
CAKI-1 renal = tested on: CAKI-1 renal
HT29 colon = tested on: HT29 colon
U251 CNS = tested on: U251 CNS
SK-MEL-2 melanoma = tested on: SK-MEL-2 melanoma
HCT-116 colon = tested on: HCT-116 colon
SR leukemia = tested on: SR leukemia
MDA-MB-231 breast = tested on: MDA-MB-231 breast

| Structure (SMILES) | TGI (A498 renal) | TGI (ACHN renal) | TGI (SNB-19 CNS) | TGI (CAKI-1 renal) | TGI (HT29 colon) | TGI (U251 CNS) | TGI (SK-MEL-2 melanoma) | GI50 (HCT-116 colon) | TGI (HCT-116 colon) | GI50 (A498 renal) | GI50 (ACHN renal) | GI50 (SNB-19 CNS) | GI50 (CAKI-1 renal) | GI50 (HT29 colon) | GI50 (U251 CNS) | GI50 (SK-MEL-2 melanoma) | TGI (SR leukemia) | TGI (MDA-MB-231 breast) | GI50 (MDA-MB-231 breast) | GI50 (SR leukemia) |
| --- | --- | --- | --- | --- | --- | --- | --- | --- | --- | --- | --- | --- | --- | --- | --- | --- | --- | --- | --- | --- |
| COc1cc2nncc(Sc3cnnc4ccccc34)c2cc1OC | 82 µM | 51.9 µM | 42.3 µM | > 100 µM | 59.1 µM | 67.5 µM | 36.2 µM |  |  |  |  |  |  |  |  |  |  |  |  |  |
| CC(C)N(C(C)C)[PH+]1O[PH+](N(C(C)C)C(C)C)O[PH+](N(C(C)C)C(C)C)O[PH+](N(C(C)C)C(C)C)O[PH+](N(C(C)C)C(C)C)O1.[C-]#[O+].[C-]#[O+].[C-]#[O+].[C-]#[O+].[C-]#[O+].[C-]#[O+].[C-]#[O+].[Cr].[Cr] (stereo unspecified) | > 100 µM | > 100 µM | > 100 µM | > 100 µM | > 100 µM | > 100 µM | > 100 µM | > 100 µM | > 100 µM | > 100 µM | > 100 µM | > 100 µM | > 100 µM | > 100 µM | > 100 µM | > 100 µM |  |  |  |  |
| COC(=O)c1nc(NN)[nH]c(=O)c1CCCCCc1c(C(=O)OC)[nH]c(NN)cc1=O | > 100 µM | > 100 µM | > 100 µM | > 100 µM | > 100 µM | > 100 µM | > 100 µM |  | > 100 µM |  |  |  |  |  |  |  | > 58.9 µM |  |  |  |
| CC(C)c1cccc(C(C)C)c1NC(=O)C(=O)C(C(=O)c1ccccc1-c1ccccc1)C1OC(=O)c2ccccc21 (stereo unspecified) |  | > 100 µM | 40.1 µM | 76.5 µM | 43.9 µM | 25.4 µM | 32.1 µM |  | 73.3 µM |  |  |  |  |  |  |  | > 100 µM |  |  |  |
| Cc1nc2c(n1CC(C)(C)C)C(=O)c1ccccc1C2=O |  | > 100 µM | > 100 µM |  | > 100 µM | > 100 µM | > 100 µM |  | > 100 µM |  |  |  |  |  |  |  | > 100 µM |  |  |  |
| N=C(N)SCc1cn2ccccc2n1 |  | > 100 µM | > 100 µM | > 100 µM | > 100 µM | > 100 µM | > 100 µM |  | > 100 µM |  |  |  |  |  |  |  | > 100 µM |  |  |  |
| COc1cc(C2c3cc4c(cc3[C@@H](Nc3ccc(N(C)C)cc3)[C@H]3COC(=O)C23)OCO4)cc(OC)c1O (stereo partly specified) | 3.42 µM and 10.2 µM | 0.999 µM and 1.34 µM | 11.2 µM and 11.8 µM | 1.03 µM and 3.42 µM | 4.64 µM and 11.3 µM | 1.33 µM and 3.37 µM | 9.12 µM and 12 µM | 5.52 µM | 11.7 µM and 20.2 µM | 0.643 µM | 0.0694 µM | 0.441 µM | 0.311 µM | 2.46 µM | 0.195 µM | 3.58 µM | 0.924 µM |  |  |  |
| C=C1C(=O)O[C@@H]2C[C@@]3(C)CC(=O)C=C(C)[C@@H]3C[C@H]12 |  | 8.69 µM | 50 µM | 21.6 µM | 24.6 µM | 39.1 µM | 29.8 µM |  | 20.2 µM |  |  |  |  |  |  |  |  | 34 µM |  |  |
| COc1cc(Nc2ccnc(N3CCN(c4ccnc5cc(Cl)ccc45)CC3)n2)cc(OC)c1 |  | > 100 µM | > 100 µM |  | 2.96 µM | > 26.9 µM | 4.02 µM | 0.496 µM | 10.3 µM |  | 2.04 µM | 2.64 µM |  | 0.46 µM | 1.66 µM | 0.738 µM |  | > 100 µM | 0.567 µM |  |
| CC[C@H](C)[C@H](NC(=O)c1cnccn1)C(=O)N(C)[C@H](C[C@@H](OC(C)=O)c1nc(C(=O)N[C@@H](Cc2ccccc2)C[C@H](C)C(=O)OC)cs1)C(C)C | 3.15 µM | > 33.3 µM | > 33.3 µM |  | 6.75 µM | > 33.3 µM | > 33.3 µM | 1.19 µM | > 33.3 µM | 0.907 µM | 2.69 µM | 1.42 µM |  | 1.06 µM | 1.18 µM | 0.827 µM | > 33.3 µM | 19.6 µM | 1.39 µM | 0.048 µM |
| CSc1nc2c(c(O)c(C)c(=O)n2C2OC(COC(C)=O)C(OC(C)=O)C(OC(C)=O)C2OC(C)=O)c(=O)n1C (stereo unspecified) | > 100 µM | > 100 µM | > 100 µM | > 100 µM | > 100 µM | > 100 µM | > 100 µM |  | > 100 µM |  |  |  |  |  |  |  |  |  |  |  |
| O=C(C(=O)c1ccc(Cc2ccc(C(=O)C(=O)c3ccccc3)cc2)cc1)c1ccccc1 | > 100 µM | > 100 µM | > 100 µM | > 100 µM | > 100 µM | > 100 µM | > 100 µM |  | > 100 µM |  |  |  |  |  |  |  |  |  |  |  |
| N#CC(C#N)SCc1ccccc1 | > 100 µM | > 100 µM | > 100 µM | > 100 µM | 62.8 µM | 56.6 µM | 93 µM |  | 75.5 µM |  |  |  |  |  |  |  |  |  |  |  |
| Cc1ccc(C(=O)/C(=C/c2ccc([N+](=O)[O-])cc2)S(=O)Cc2ccccc2)cc1 (stereo unspecified) | 3.4 µM | 2.92 µM | 3.07 µM |  | 2.44 µM | 2.24 µM | 3.26 µM | 1.57 µM | 2.99 µM | 1.75 µM | 1.56 µM | 1.55 µM |  | 1 µM | 1.02 µM | 1.57 µM | 5.21 µM | 2.77 µM | 1.19 µM | 0.539 µM |
| O=c1nc(-c2ccccc2)c2c3c(cccn13)CCC2 | > 100 µM | > 100 µM | > 100 µM | > 100 µM | > 100 µM | > 100 µM | > 100 µM |  | > 100 µM |  |  |  |  |  |  |  | > 100 µM |  |  |  |
| O=C1c2ccccc2N2OC3(N4CCCC4)CCCC3C12c1ccccc1 (stereo unspecified) | > 100 µM | > 100 µM | > 100 µM |  | > 100 µM | > 100 µM |  |  | > 100 µM |  |  |  |  |  |  |  | > 100 µM |  |  |  |
| COc1ccc(-n2nnc3c(sc4ccccc43)c2=O)cc1 |  |  |  |  |  |  | > 100 µM |  |  |  |  |  |  |  |  | > 100 µM |  |  |  |  |
| CC(=O)N(CCN)CCN | > 10 µM | > 100 µM | > 10 µM | > 10 µM |  | > 10 µM | > 100 µM |  | > 10 µM |  |  |  |  |  |  |  | > 10 µM |  |  |  |
| COc1ccc(C(C2=C(C)C(=O)c3ccccc3C2=O)c2ccc(C(C)C)cc(=O)c2O)cc1 (stereo unspecified) |  | 9.96 µM |  | 7.91 µM | 35.3 µM | 10.9 µM | 22.3 µM |  | 14.7 µM |  |  |  |  |  |  |  | 21.3 µM |  |  |  |
| Fc1cccc(Cl)c1C1SCc2nc3ccccc3n21 (stereo unspecified) | > 100 µM | > 100 µM | > 100 µM | > 100 µM | > 100 µM | 89.7 µM | 51 µM |  | 55.1 µM |  |  |  |  |  |  |  | 54.4 µM |  |  |  |
